Assays:
BCL2 WT = BCL2 WT (Homo sapiens (Human), UniProt P10415); assay: TR-FRET competitive binding assay, BCL2 WT; conditions: Ki determined from IC50, read-out: TR_FRET EKI_Bcl2 WT
Outline: (§1)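 Competitive TR-FRET displacement of fluorescein-PUMA peptide (2 or 20 nM) from 0.5 nM terbium-labelled N-terminal Halo-fusion BCL2 (1-207, wild type or mutant) or BCLXL (2-196), expressed in E. coli. Buffer 50 mM Hepes pH 7.5, 150 mM NaCl, 5% DMSO; 2 h at 23°C. 520/495 nm ratio fitted over 11 points for IC50, converted to Ki.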

BCL2 G101V [1] = target: BCL2 G101V (Homo sapiens, UniProt P10415, G101V); assay: TR-FRET competitive binding assay, BCL2 G101V; conditions: BCL2 G101V; Ki determined from IC50; read-out: TR_FRET EKI_Bcl2 G101V
Outline: as §1

BCL2 G101V [2] = assay: TR-FRET competitive binding assay, BCL2 G101V; design: species or system human; conditions: ratio Ki BCL2 G101V / Ki BCL2 WT
Outline: as §1

BCL2 D103Y = BCL2 D103Y (Homo sapiens, UniProt P10415, D103Y); assay: TR-FRET competitive binding assay, BCL2 D103Y; conditions: Ki determined from IC50, read-out: TR_FRET EKI_Bcl2 D103Y
Outline: as §1

KMS-12-PE Bcl-2 G101V = assay: In vitro cytotoxicity CellTiter-Glo 48 h, KMS-12-PE Bcl-2 G101V; assay type: cell-based; conditions: for Ratio (G101V/WT): C50 KMS-12-PE Bcl-2 G101V over C50 KMS-12-PE Bcl-2 WT; for IC50: Homo sapiens, KMS-12-PE, 48 h, CellTiter-Glo, C50 = concentration needed to reach 50% of the cellular viability
Outline: (§2)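 CTG luminescence read-out; C50 = concentration reaching 50% cellular viability. Cells: KMS-12-PE expressing Bcl-2 WT or G101V (lentiviral, TagRFP-sorted). 11-pt curve, 48 h, 37 °C/5% CO2.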

KMS-12-PE Bcl-2 WT = assay: In vitro cytotoxicity CellTiter-Glo 48 h, KMS-12-PE Bcl-2 WT; assay type: cell-based; conditions: Homo sapiens, KMS-12-PE, C50 = concentration needed to reach 50% of the cellular viability
Outline: as §2

BCLXL WT = BCLXL WT (Homo sapiens (Human), UniProt Q07817); assay: TR-FRET competitive binding assay, BCLXL WT; conditions: for Ki: BCLXL WT, Ki determined from IC50, read-out: TR_FRET EKI BclxL; for TR_FRET EKI BCLxL/WT selectivty ratio: ratio Ki BCLxL / Ki BCL2 WT
BCLXL WT, sequence (Q07817 other isoform, or with tags, fused parts or gaps): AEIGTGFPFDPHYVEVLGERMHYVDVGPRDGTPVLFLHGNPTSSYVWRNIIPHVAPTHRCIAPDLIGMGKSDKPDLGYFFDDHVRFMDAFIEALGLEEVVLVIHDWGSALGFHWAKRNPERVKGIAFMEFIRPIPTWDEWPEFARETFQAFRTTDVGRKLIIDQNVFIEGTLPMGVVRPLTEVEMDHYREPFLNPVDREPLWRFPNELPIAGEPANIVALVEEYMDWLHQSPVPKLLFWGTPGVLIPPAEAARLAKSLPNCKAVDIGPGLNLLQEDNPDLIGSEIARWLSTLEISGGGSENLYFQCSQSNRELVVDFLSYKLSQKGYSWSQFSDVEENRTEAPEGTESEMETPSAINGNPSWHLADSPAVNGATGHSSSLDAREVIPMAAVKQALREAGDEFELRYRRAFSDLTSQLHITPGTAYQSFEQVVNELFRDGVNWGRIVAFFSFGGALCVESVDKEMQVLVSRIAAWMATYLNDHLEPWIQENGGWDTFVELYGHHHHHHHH
Outline: as §1

Row | Structure (SMILES) | Ki (BCL2 WT) | Ki (BCL2 G101V [1]) | TR_FRET EKI G101V/WT selectivty ratio (BCL2 G101V [2]) | Ki (BCL2 D103Y) | Ratio (G101V/WT) (KMS-12-PE Bcl-2 G101V) | IC50 (KMS-12-PE Bcl-2 G101V) | IC50 (KMS-12-PE Bcl-2 WT) | Ki (BCLXL WT) | TR_FRET EKI BCLxL/WT selectivty ratio (BCLXL WT)
1 | Cc1c(N(C(=O)c2cc(-c3cc4c(cc3C(=O)N3Cc5ccccc5C[C@H]3C)CN(C(=O)Cc3ccc(OCCN5CCOC6(CC6)C5)cc3)CC4)n(C)c2C)c2ccc(O)cc2)cc(C#N)n1C [Example 93, N-(5-cyano-1,2-dimethyl-1H-pyrrol-3-yl)-N-(4-hydroxyphenyl)-1,2-dimethyl-5-{7-[(3R)-3-methyl-1,2,3,4-tetrahydroisoquinoline-2-carbonyl]-2-{2-[4-(2-{4-oxa-7-azaspiro[2.5]octan-7-yl}ethoxy)phenyl]acetyl}-1,2,3,4-tetrahydroisoquinolin-6-yl}-1H-pyrrole-3-carboxamide] | 0.19 nM | 1.1 nM | 5.5 | 0.34 nM | 3.45 | 0.0182 µM | 0.0053 µM | 2.4 nM | 12.6
2 | Cc1c(C(=O)N(c2ccc(O)cc2)c2cc(C#N)n(C(F)F)c2C)cc(-c2cc3c(cc2C(=O)N2Cc4ccccc4C[C@H]2C)CN(C(=O)Cc2ccc(OCCN4CCOCC4)cc2F)CC3)n1C [Example 94, N-[5-cyano-1-(difluoromethyl)-2-methylpyrrol-3-yl]-5-[2-(2-{2-fluoro-4-[2-(morpholin-4-yl)ethoxy]phenyl}acetyl)-7-{[(3R)-3-methyl-3,4-dihydro-1H-isoquinolin-2-yl]carbonyl}-3,4-dihydro-1H-isoquinolin-6-yl]-N-(4-hydroxyphenyl)-1,2-dimethylpyrrole-3-carboxamide] | 0.22 nM | 1.1 nM | 5.0 | 0.66 nM | 3.31 | 0.0107 µM | 0.0032 µM | 3.3 nM | 15.0
3 | CCN(CC)C[C@@H]1Cc2ccccc2CN1C(=O)c1cc2c(cc1-c1cc(C(=O)N(c3ccc(O)cc3)c3cc(C#N)n(C)c3C)c(C)n1C)CCN(C(=O)Cc1ccc(OCCN3CCOCC3)cc1F)C2 [Example 137, N-(5-cyano-1,2-dimethyl-1H-pyrrol-3-yl)-5-{7-[(3S)-3-[(diethylamino)methyl]-1,2,3,4-tetrahydroisoquinoline-2-carbonyl]-2-(2-{2-fluoro-4-[2-(morpholin-4-yl)ethoxy]phenyl}acetyl)-1,2,3,4-tetrahydroisoquinolin-6-yl}-N-(4-hydroxyphenyl)-1,2-dimethyl-1H-pyrrole-3-carboxamide] | 0.06 nM | 0.3 nM | 4.6 | 0.16 nM | 3.2905 | 0.0487 µM | 0.0148 µM | 1.4 nM | 23.7
4 | COCCn1c(C#N)cc(N(C(=O)c2cc(-c3cc4c(cc3C(=O)N3Cc5ccccc5C[C@H]3C)CN(C(=O)Cc3ccc(OCCN5CCOCC5)cc3)CC4)n(C)c2C)c2ccc(O)cc2)c1C [Example 68, N-[5-cyano-1-(2-methoxyethyl)-2-methyl-pyrrol-3-yl]-N-(4-hydroxyphenyl)-1,2-dimethyl-5-[7-[(3R)-3-methyl-3,4-dihydro-1H-isoquinoline-2-carbonyl]-2-[2-[4-(2-morpholinoethoxy)phenyl]acetyl]-3,4-dihydro-1H-isoquinolin-6-yl]pyrrole-3-carboxamide] | 0.07 nM | 0.4 nM | 5.7 | 0.23 nM | 5.82 | 0.0556 µM | 0.0096 µM | 1.6 nM | 24.6
5 | Cc1c(N(C(=O)c2cc(-c3cc4c(cc3C(=O)N3Cc5ccccc5C[C@H]3C)CN(C(=O)c3n[nH]c5ccccc35)CC4)n(C)c2C)c2ccc(O)cc2)cc(C#N)n1C [Example 15, N-(5-cyano-1,2-dimethyl-1H-pyrrol-3-yl)-N-(4-hydroxyphenyl)-5-[2-(1H-indazole-3-carbonyl)-7-[(3R)-3-methyl-1,2,3,4-tetrahydroisoquinoline-2-carbonyl]-1,2,3,4-tetrahydroisoquinolin-6-yl]-1,2-dimethyl-1H-pyrrole-3-carboxamide] | 0.67 nM | 6.1 nM | 9.1 | 3.01 nM | 4.3 | 0.0714 µM | 0.0166 µM | 8.4 nM | 12.5
6 | CCn1c(C#N)cc(N(C(=O)c2cc(-c3cc4c(cc3C(=O)N3Cc5ccccc5C[C@H]3C)CN(C(=O)Cc3ccc(OCCN5CCOCC5)cc3)CC4)n(C)c2C)c2ccc(O)cc2)c1C [Example 41, N-(5-cyano-1-ethyl-2-methyl-pyrrol-3-yl)-N-(4-hydroxyphenyl)-1,2-dimethyl-5-[7-[(3R)-3-methyl-3,4-dihydro-1H-isoquinoline-2-carbonyl]-2-[2-[4-(2-morpholinoethoxy)phenyl]acetyl]-3,4-dihydro-1H-isoquinolin-6-yl]pyrrole-3-carboxamide] | 0.12 nM | 0.4 nM | 3.1 | 0.55 nM | 5.41 | 0.051 µM | 0.0094 µM | 2 nM | 16.7
7 | Cc1c(N(C(=O)c2cc(-c3cc4c(cc3C(=O)N3Cc5ccccc5C[C@H]3CN3CCCCC3)CN(C(=O)Cc3cc(F)c(OCCN5CCOCC5)cc3F)CC4)n(C)c2C)c2ccc(O)cc2)cc(C#N)n1C [Example 83, N-(5-cyano-1,2-dimethylpyrrol-3-yl)-5-[2-(2-{2,5-difluoro-4-[2-(morpholin-4-yl)ethoxy]phenyl}acetyl)-7-{[(3S)-3-(piperidin-1-ylmethyl)-3,4-dihydro-1H-isoquinolin-2-yl]carbonyl}-3,4-dihydro-1H-isoquinolin-6-yl]-N-(4-hydroxyphenyl)-1,2-dimethylpyrrole-3-carboxamide] | 0.09 nM | 0.9 nM | 10.9 | 0.21 nM | 8.1 | 0.0958 µM | 0.0125 µM | 9.3 nM | 109.4
8 | Cc1c(N(C(=O)c2cc(-c3cc4c(cc3C(=O)N3Cc5ccccc5C[C@H]3CN3CCCCC3)CN(C(=O)Cc3ccc(OCCN5CCOCC5)cc3Cl)CC4)n(C)c2C)c2ccc(O)cc2)cc(C#N)n1C [Example 161, 5-[2-[2-[2-chloro-4-(2-morpholinoethoxy)phenyl]acetyl]-7-[(3S)-3-(1-piperidylmethyl)-3,4-dihydro-1H-isoquinoline-2-carbonyl]-3,4-dihydro-1H-isoquinolin-6-yl]-N-(5-cyano-1,2-dimethyl-pyrrol-3-yl)-N-(4-hydroxyphenyl)-1,2-dimethyl-pyrrole-3-carboxamide] | 0.05 nM | 0.3 nM | 7.0 | 0.14 nM | 4.6212 | 0.0427 µM | 0.0092 µM | 2.9 nM | 61.7
9 | Cc1c(C(=O)N(c2ccc(O)cc2)c2cnn3c2CCCC3)cc(-c2cc3c(cc2C(=O)N2Cc4ccccc4C[C@H]2C)CN(C(=O)Cc2ccc(OCCN4CCOCC4)cc2)CC3)n1C [Example 147, N-(4-hydroxyphenyl)-1,2-dimethyl-5-(7-{[(3R)-3-methyl-3,4-dihydro-1H-isoquinolin-2-yl]carbonyl}-2-(2-{4-[2-(morpholin-4-yl)ethoxy]phenyl}acetyl)-3,4-dihydro-1H-isoquinolin-6-yl)-N-{4H,5H,6H,7H-pyrazolo[1,5-a]pyridin-3-yl}pyrrole-3-carboxamide] | 0.06 nM | 0.3 nM | 5.9 | 0.14 nM | 6.9408 | 0.211 µM | 0.0304 µM | 1 nM | 17.2
